{"source": "patent US20030175690A1", "about": "(priority 1999, published 2003)", "biological_target": "NL4-3 protease (Human immunodeficiency virus type 1 group M subtype B, UniProt P12497)", "conditions": "reference clone reconstructed with NL4-3 protease; HeLa cells; drug 0.1 μM; supernatant 48 hours after transfection", "protocol": "Positive colonies were grown in 5 mL LB medium, the plasmids extracted, and HeLa cells grown to 50% confluence on an 8-well plate (Costar), transfected by lipofectin (Bethesda Research Laboratories) in triplicate using pΔproΔRTΔenv (0.5 μg) containing the exogenous HIV-1 PR sequences. […] The degree of inhibition of viral expression was documented by the ratio between the levels of p24Ag detected in the presence and in the absence of the anti-viral compound (R=p24Ag^drug,/p24Ag^medium). The percent Sensitivity Index (SI%=100×R^reference/R^sample) was introduced to normalise differences due to cell related variables among different experiments. Proteases displaying SI% values greater than 80% were considered fully sensitive; partially sensitive (intermediate phenotype) between 80 and 60%; and resistant when lower than 60%.\nThe HIV-1 PR coding sequences amplified from the 13 culture supernatants or directly from the 6 plasma samples were cloned into the pΔproΔRTΔenv nonreplicative backbone, and the resulting plasmids were transfected into semiconfluent HeLa cells. After 48 hours of incubation the supernatants were assayed for HIV-1 p24Ag concentration.\nThis index was determined by normalising the R value of each clinical sample (R^sample) to that of the NL4-3 reference strain (R^reference) evaluated in parallel experiment, according to the function SI%=100×R^reference/R^sample.", "data": [{"smiles": "CC(C)c1nc(CN(C)C(=O)N[C@H](C(=O)N[C@@H](Cc2ccccc2)C[C@H](O)[C@H](Cc2ccccc2)NC(=O)OCc2cncs2)C(C)C)cs1", "note": "[RTV, ritonavir]", "values": [{"measurement": "production of HIV-1 p24Ag by the reference clone in the presence of drug, compared with PI-free medium", "value": "strongly inhibited"}]}]}
